Experiments:
[1] = test system: S. aureus strain SafabF/GFP; experiment: Liquid GFP reporter assay for fabF antisense revertants (Relative Fluorescence Index); type: cell-based, Staphylococcus aureus; settings: for change of RFI with increasing xylose concentration: 0, 7 and 14 mM xylose, drug concentrations approximating 50% inhibition of growth in no-xylose cells, 16 hours
Text: The green fluorescent protein (GFP) reporter gene was used to identify fabF antisense revertants in liquid culture by the following method: S. aureus containing a plasmid encoding the antisense fabF DNA was used to develop an inducible GFP reporter system, where the GFP gene is transcriptionally silent until the fabF antisense containing plasmid DNA is deleted or rearranged. A plasmid, pM310, was constructed that consists of the fabF antisense vector (Forsyth et al, 2002), with a tetracycline repressor gene and its promoter (Geissendorfer et al., Appl. Microbiol. Biotechnol 1990, 33: 657-663) inserted downstream of the fabP antisense DNA. A second plasmid, pM302, was constructed that consists of the E. coli vector pUC19 (Gibco BRL) joined to the S. aureus vector pUB110 (ATCC 37015), through the EcoR1 and AatII restriction sites. At the pUC19 multicloning site, a GFP gene was inserted into the BamH1 and SalI restriction sites and a tetracycline operator containing promoter (Geissendorfer et al, 1990) was cloned into the EcoR1 and BamH1 sites. A S. aureus strain, SafabF/GFP, was constructed that contained both plasmids pM310 and pM302 and was resistant to chloramphenicol and kanamycin. SafabF/GFP was sensitive to xylose induction resulting in an increased sensitivity to cerulenin. In the presence of cerulenin, resistant revertants will be selected for, which have deleted the antisense vector, and along with this deletion, lost the tetracycline repressor gene. […] Revertants can be measured as a function of fluorescent readout relative to cell number.
To quantitatively measure the fabF revertants, a liquid assay was developed, where various concentrations of xylose were tested with various concentrations of the following test compounds: cerulenin, thiostrepton and ampicillin. […] A 96-well plate was used to measure growth of the culture and final absorbance after 16 hours of incubation at 37° C. […] The final absorbance as read at 590 nm (A590) and fluorescence of the GFP was measured by excitation at 485 nm wavelength and emission wavelength at 535 nm (E535), using a Tecan Spectrafluor Plus.
To detect a specific GFP response in the presence of a fabF selective inhibitor, cerulenin, the Relative Fluorescence Index (RFI) was calculated for each drug treatment and for each xylose treatment. The RFI is defined as E535/A590 ratio, normalized to the corresponding ratio calculated on no-xylose control cells within each drug test group. For instance, with 15 μg/ml cerulenin treatment, the E535/A590 ratio was calculated for 0, 7 and 14 mM xylose treated cells, and the ratio for each were divided by the E535/A590 ratio from the no-xylose treated cells. […]

[2] = test system: S. aureus containing S1-1941, a plasmid expressing a xylose-inducible fabF anti-sense RNA; experiment: Agar assay for fabF-acting substances: revertant colonies in the zone of inhibition; type: cell-based, Staphylococcus aureus; settings: for appearance of revertant colonies / zone of growth inhibition on assay plate: 10 μL sample per well, thiotetramycin 1 mg/mL in DMSO, cerulenin 20 μg/mL in DMSO, kanamycin 100 μg/mL in water, xylose 23.6 mM, overnight 37° C., visual inspection
Protocol: S. aureus containing S1-1941, a plasmid expressing a xylose-inducible fabF anti-sense RNA (described in WO 00/44906 and in Forsyth et al., Mole. Microbiol. 2002, 43: 1387-1400), are inoculated into an LB broth culture medium supplemented with […] of chloramphenicol, and grown overnight at 37° C. with shaking (225 rpm). The culture is then diluted in the LB medium to a final optical density (λ=600 nm) of 0.3. Diluted cells (750 μL) are then added to a molten LB-agar medium (30 mL) supplemented with xylose (23.6 mM) and glucose (0.19 g/100 mL) and equilibrated at 48° C. The molten mixture is briefly mixed and is then poured onto sterile disposable polystyrene 86×128 mm dishes (NUNC Cat. No. 242811), after which a TSP (=transferable solid phase screening system) casting tray (NUNC Cat. No. 445497) is placed on top to cast wells. The dishes are allowed to cool down to room temperature for about 15 minutes and are then stored for no more than 2 days at 4° C. until ready for sample dispensing. Samples (10 μL) of one or more test substances (500 μM) and samples of controls, each dissolved in 100% DMSO, are subsequently dispensed into wells and the plates incubated overnight at 37° C. The incubated plates are then inspected visually for the appearance of revertant colonies to determine whether the test substance(s) act at the fabF protein.
The fabF-targeting control will produce revertant colonies in and around a zone of inhibition, and the non-fabF targeting control will produce a clear zone of inhibition (i.e., devoid of revertant colonies). The zones of inhibition of the test substances are compared to those of the controls to screen for fabF-acting substances.
The assay protocol set forth in Part A was employed to test whether thiotetramycin is a fabF-acting antibacterial agent. A 10 μL sample of thiotetramycin dissolved in 100% DMSO (1 mg/mL) was dispensed into one well of the plate. In addition, a 10 μL sample of cerulenin in 100% DMSO (20 μg/mL) and a 10 μL sample of kanamycin in water (100 μg/mL) were respectively dispensed into two wells as controls. After incubation as described in Part A, the plates were inspected visually for zones of bacterial growth.

Compound	change of RFI with increasing xylose concentration [1]	maximum change of Relative Fluorescence Index (RFI) ([1]; 14 mM xylose and 15 μg/ml cerulenin, 16 hours at 37° C., normalized to no-xylose control cells)	appearance of revertant colonies / zone of growth inhibition on assay plate [2]	appearance of revertant colonies / zone of growth inhibition on assay plate ([2]; listed as Cerulenin)	appearance of revertant colonies / zone of growth inhibition on assay plate ([2]; listed as Thiotetramycin)	conclusion whether test substance is a fabF-acting antibacterial agent ([2]; from comparison with cerulenin and kanamycin controls)
CC1(C)S[C@@H]2[C@H](NC(=O)[C@H](N)c3ccccc3)C(=O)N2[C@H]1C(=O)O [ampicillin]	No increase in RFI					
C/C=C/C/C=C/CCC(=O)[C@H]1O[C@H]1C(N)=O [cerulenin]	RFI increased with increasing xylose concentration	9 fold	several visually observable revertant bacterial colonies	growth of revertant colonies in and around a zone of growth inhibition		
C=C(NC(=O)C(=C)NC(=O)c1csc(C2=N[C@@H]3c4csc(n4)[C@H]4NC(=O)c5csc(n5)[C@H]([C@](C)(O)[C@@H](C)O)NC(=O)[C@H]5CSC(=N5)/C(=C/C)NC(=O)[C@H]([C@@H](C)O)NC(=O)c5csc(n5)[C@]3(CC2)NC(=O)[C@H](C)NC(=O)C(=C)NC(=O)[C@H](C)NC(=O)[C@H]([C@@H](C)CC)N[C@@H]2C=Cc3c([C@H](C)O)cc(nc3[C@H]2O)C(=O)O[C@@H]4C)n1)C(N)=O [thiostrepton]	No increase in RFI					
thiotetramycin			several visually observable revertant bacterial colonies		growth of revertant colonies which appear as small white foci of growth in and around a zone of growth inhibition	selectively targets the fabF protein

Source: patent publication US20060035365A1, “Method for identifying cellular growth inhibitors” (priority 2002, published 2006)
